The values below come from patent publication US20140017336A1, “CO-ADMINISTRATION OF ARSENIC COMPOUNDS AND ANTI-HERPES VIRUS ANTI-VIRALS” (priority 2011, published 2014).

Series [1] deals with LMP1 dependent upregulation of PML NBs. Put plainly: Transfection/inhibitor studies of LMP1 upregulation of PML NBs. The series is classed as cell-based. Here is the method: A series of transfection/inhibitor studies were carried out to investigate the mechanism of upregulation of the PML-NB by LMP1. […] Either inhibition of ERK phosphorylation by U0126 or Stat3 dimerization by Stattic, however, prevented the LMP1 dependent upregulation of PML NBs.

Series [2] has as its system APL and non-APL cell lines. Conditions: Konig et al., 1997; cited from earlier work.
Series [3] deals with nonmalignant blood mononuclear cells from normal donors. Conditions: cited from earlier work.
The test system of another series is EBV BMRF1 mRNA. The series is classed as cell-based, Epstein-Barr virus. Conditions: 10 nM ATO and/or 40 μM GCV.
The next series relates to LCL<EBV1-13> cells. The series is classed as cell-based, human.
In another series the test system is EBV Zta mRNA. The series is classed as cell-based, Epstein-Barr virus.
Series [4] deals with uninfected parental A549 cells. Conditions: 4 days, 10 nM ATO, 40 μM GCV.
The next series concerns EBV Zta protein. The series is classed as in vivo, male nude mice. To be noted: mouse, in vivo.
The test system of the next series is CNE1<EBV BX1> tumors. Put plainly: CNE1<EBV BX1> nasopharyngeal carcinoma xenograft, tumor volume. The series is classed as in vivo, male nude mice. Conditions: 21 days of once daily treatment; GCV 100 μg/g, ATO 100 ng/g; carrier control just under double.

For the molecule `Cc1ccc(NCCCc2ccccc2)c(N)c1` [JSH23], the “effect on LMP1 upregulation of PML NBs” value in series [1] is “did not affect”.
`O=[N+]([O-])c1ccc2c(c1)S(=O)(=O)C=C2` [Stattic]: the “effect on LMP1 upregulation of PML NBs” value in series [1] is listed as “prevented”.
In the case of `Nc1nc(N)nc(Nc2ccc([As]3SCC(CO)S3)cc2)n1` (centres unmarked) [Melarsoprol, melarsoprol], the “activity against APL and non-APL cell lines” value in series [2] is “at least equivalent to that of arsenic trioxide”.
Turning to `C[As](C)SC[C@H](NC(=O)CC[C@H](N)C(=O)O)C(=O)NCC(=O)O` [SGLU1, S-(dimethylarsino) glutathione], the “toxicity against nonmalignant blood mononuclear cells” value in [3] is reported as “low toxicity”.
For the molecule `N#CC(=C(/N)Sc1ccccc1N)/C(C#N)=C(\N)Sc1ccccc1N` [U0126], in series [1], the “effect on LMP1 upregulation of PML NBs” value is on record as “prevented”.
As for `Nc1nc2c(ncn2COC(CO)CO)c(=O)[nH]1` [GCV, 9-[[2-hydroxy-1-(hydroxymethyl)-ethoxy]methyl]guanine], the “BMRF1 mRNA expression over 7 days” value with EBV BMRF1 mRNA is listed as “no effect”. Besides, the “viable cells after a third day of treatment compared with two days” value in the series on LCL<EBV1-13> cells is listed as “did not result in reducing the number of viable cells”. Also, the “Zta mRNA expression over 7 days” value in the series on EBV Zta mRNA is listed as “no effect”. In addition, the “viability of uninfected parental cells” value in series [4] was “did not affect the viability”. Moreover, in the series on EBV Zta protein, the “Zta expression in tumor explant tissue” value is on record as “Only the occasional Zta positive cell”. Moreover, the “tumor size increase over size at day 7 (pre-treatment)” value with CNE1<EBV BX1> tumors was “approximately 25%”.
